Patent US11230543B2, “Biaryl monobactam compounds and methods of use thereof for the treatment of bacterial infections” (priority 2015, dated 2022)
Where a name gives a salt, the structure may show the parent alone.

Key:
[1] = test system: Pseudomonas aeruginosa expressing AmpC (CL5701); assay: Antibiotic activity: growth inhibitory concentration (OD600), Pseudomonas aeruginosa CL5701; type: cell-based; conditions: lowest concentration inhibiting 95% of bacterial growth; in the presence of β lactamase inhibitor Relebactam 4 μg/mL; 35±2° C. for 22 hours; tested range 100 μM to 0.098 μM
How it was run: (§1)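 Clinical strains at ~2×10^5 CFU/mL in cation-adjusted Mueller-Hinton II broth, with relebactam at 4 μg/mL final; compounds 100 μM to 0.098 μM final. After 22 hours at 35±2° C, OD600 read; MITC95 is lowest concentration giving 95% growth inhibition.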

[2] = test system: Klebsiella pneumoniae expressing KPC-1 (CL6569); assay: Antibiotic activity: growth inhibitory concentration (OD600), Klebsiella pneumoniae CL6569; type: cell-based; conditions: lowest concentration inhibiting 95% of bacterial growth; in the presence of β lactamase inhibitor Relebactam 4 μg/mL; 35±2° C. for 22 hours; tested range 100 μM to 0.098 μM
How it was run: as §1

| SMILES | PA_CL5701 MITC95 [1] [µM] | KP_CL6569 MITC95 [2] [µM] |
| --- | --- | --- |
| C[C@@H](COc1ccc(-c2ccc(NCCN)[n+](C)c2)cc1)O/N=C(\C(=O)N[C@@H]1C(=O)N(OS(=O)(=O)O)C1(C)C)c1csc(N)n1 [Example 90, (S)-3-((Z)-2-((((S)-1-(4-(6-((2-aminoethyl)amino)-1-methylpyridin-1-ium-3-yl)phenoxy)propan-2-yl)oxy)imino)-2-(2-aminothiazol-4-yl)acetamido)-2,2-dimethyl-4-oxoazetidin-1-yl sulfate] | 25 | 1.563 |
| C[n+]1cc(-c2ccc(OC(CO/N=C(\C(=O)N[C@@H]3C(=O)N(OS(=O)(=O)[O-])C3(C)C)c3csc(N)n3)C(=O)O)cc2)cn1CCCN (single isomer, unassigned) [Example 85] | 40 | 2.5 |
| Cc1cc(-c2ccc(OC[C@H](O/N=C(\C(=O)N[C@@H]3C(=O)N(OS(=O)(=O)O)C3(C)C)c3csc(N)n3)C(=O)O)cc2)[n+](C)n1CCCN.O=C([O-])C(F)(F)F [Example 22, 1-(3-aminopropyl)-3-(4-((S)-2-((((Z)-1-(2-aminothiazol-4-yl)-2-(((S)-2,2-dimethyl-4-oxo-1-(sulfooxy)azetidin-3-yl)amino)-2-oxo-ethylidene)amino)oxy)-2-carboxyethoxy)phenyl)-2,5-dimethyl-1H-pyrazol-2-ium 2,2,2-trifluoroacetate] | 25 | 0.7813 |
| CC1(C)[C@H](NC(=O)/C(=N\O[C@@H](COc2ccc(-c3cn(CCCN)cn3)cc2)C(=O)O)c2csc(N)n2)C(=O)N1OS(=O)(=O)O [Example 10, (S)-3-(4-(1-(3-Aminopropyl)-1H-imidazol-4-yl)phenoxy)-2-((((Z)-1-(2-aminothiazol-4-yl)-2-(((S)-2,2-dimethyl-4-oxo-1-(sulfooxy)azetidin-3-yl)amino)-2-oxoethylidene)amino)oxy)propanoic acid] | 6.25 | 0.3906 |
| CC1(C)[C@H](NC(=O)/C(=N\O[C@@H](COc2ccc(C(N)CNC3=NCCN3)cc2)C(=O)O)c2csc(N)n2)C(=O)N1OS(=O)(=O)O (stereo partly drawn) [Example 61, (2S)-3-(4-(1-amino-2-((4,5-dihydro-1H-imidazol-2-yl)amino)ethyl)phenoxy)-2-((((Z)-1-(2-aminothiazol-4-yl)-2-(((S)-2,2-dimethyl-4-oxo-1-(sulfooxy)azetidin-3-yl)amino)-2-oxoethylidene)amino)oxy)propanoic acid] | 12.5 | 1.563 |
| C[n+]1cn(CCCN)cc1-c1ccc(OC[C@H](O/N=C(\C(=O)NC2C(=O)N(OS(=O)(=O)[O-])C2(C)C)c2csc(N)n2)C(=O)O)cc1 (stereo partly drawn) [Example 2, (S)-3-((Z)-2-(2-aminothiazol-4-yl)-2-(((S)-2-(4-(1-(3-ammoniopropyl)-3-methyl-1H-imidazol-3-ium-4-yl)phenoxy)-1-carboxyethoxy)imino)acetamido)-2,2-dimethyl-4-oxoazetidin-1-yl-sulfate] | 3.125 | 0.3906 |
| CC1(C)[C@H](NC(=O)/C(=N\O[C@@H](COc2ccc(-c3cn(CCCN)[n+](C[C@@H]4CCNC4)c3)cc2)C(=O)O)c2csc(N)n2)C(=O)N1OS(=O)(=O)[O-] [Example 53, (S)-3-((Z)-2-(((S)-2-(4-(1-(3-aminopropyl)-2-(((R)-pyrrolidin-3-yl)methyl)-1H-pyrazol-2-ium-4-yl)phenoxy)-1-carboxyethoxy)imino)-2-(2-aminothiazol-4-yl)acetamido)-2,2-dimethyl-4-oxoazetidin-1-yl sulfate] | 1.563 | 0.09766 |
| C[n+]1cc(-c2ccc(OC[C@H](O/N=C(\C(=O)N[C@@H]3C(=O)N(OS(=O)(=O)O)C3(C)C)c3csc(N)n3)C(=O)O)cc2F)cn1CC(N)CN (single isomer, unassigned) [Example 46] | 6.25 | 0.3906 |
